Data taken from PubChem BioAssay (NCI).
Where “and” joins values, the source holds several entries; their conditions need not be identical. Equal entries are not always repeated.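 In this assay, cells in 96-well plates receive the compound at five concentrations for 48 hours. Endpoints are linearly interpolated between the surrounding concentrations. At the GI50, growth is halved. TGI: concentration producing complete growth inhibition.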

Experiments:
Assay in all cases: growth of human tumour cells (NCI), 48 h
[1] = system: NCI-H23 lung
[2] = system: ACHN renal
[3] = system: EKVX NSCLC
[4] = system: UACC-62 melanoma
[5] = system: SF-539 CNS
[6] = system: SW-620 colon
[7] = system: XF 498 CNS
[8] = system: MCF7 breast
[9] = system: HS 578T breast
[10] = system: PC-3 prostate

SMILES | TGI [1] | TGI [2] | TGI [3] | TGI [4] | TGI [5] | TGI [6] | TGI [7] | GI50 [1] | GI50 [2] | GI50 [8] | TGI [8] | GI50 [3] | GI50 [4] | GI50 [9] | TGI [9] | GI50 [5] | GI50 [6] | GI50 [10] | TGI [10]
O=C1c2ccccc2C(=O)c2c(O)c(NCCNCCO)cc(O)c21 | 16.7 µM | 8.93 µM | 14.4 µM | 23.8 µM | 14.4 µM | 12 µM | 19 µM |  |  |  |  |  |  |  |  |  |  |  | 
CN(C)Cc1[nH]c2ccccc2c1C(=O)c1ccccc1 | > 100 µM | > 100 µM |  | > 100 µM | > 100 µM | > 100 µM | > 100 µM |  |  |  |  |  |  |  |  |  |  |  | 
COc1ccc(C2C(Cl)C(=O)N2NC(=O)c2ccccc2O)cc1OC (stereo unspecified) | > 100 µM | > 100 µM |  | > 100 µM | > 100 µM |  | 47.7 µM |  |  |  |  |  |  |  |  |  |  |  | 
Cc1ccc(S(=O)(=O)Nc2cc(Sc3ccccc3)c(O)c3ccccc23)cc1 | 22 µM | 10.4 µM | 25.3 µM | 6.72 µM | 9.51 µM | 16.2 µM |  | 4.44 µM | 2.8 µM | 1.95 µM | 4.79 µM | 12.3 µM | 2.41 µM | 3.27 µM | 10.8 µM | 3.19 µM | 3.91 µM | 2.2 µM | 9.29 µM
CC(=O)C1C(=O)C(=O)N(c2ccc(Br)cc2)C1=O (stereo unspecified) | > 100 µM | > 100 µM | > 100 µM | > 100 µM | > 100 µM | > 100 µM |  |  |  |  | > 100 µM |  |  |  | > 100 µM |  |  |  | > 100 µM
Nc1nc(NCCOCP(=O)(O)O)c(N)c(=O)[nH]1 | > 100 µM | > 100 µM | > 100 µM | > 100 µM | > 100 µM | > 100 µM |  |  |  |  | > 100 µM |  |  |  | > 100 µM |  |  |  | > 100 µM
C#CC(O)Cc1ccc(OC)c2occc12 (stereo unspecified) | > 100 µM | > 100 µM | > 100 µM | > 100 µM | > 100 µM | > 100 µM |  |  |  |  | > 100 µM |  |  |  | > 100 µM |  |  |  | > 100 µM
Cc1ncc(CO)c(C=NCCCCCCN=Cc2c(CO)cnc(C)c2O)c1O | > 100 µM | > 100 µM | > 100 µM | > 100 µM | > 100 µM | > 100 µM |  |  |  |  | > 100 µM |  |  |  | > 100 µM |  |  |  | > 100 µM
Cc1cn2c(/C=C3/C(=O)Nc4ccccc43)c(C)nc2s1 | > 100 µM | > 100 µM | > 100 µM | > 100 µM | 7.83 µM | 77.3 µM |  |  |  |  | > 100 µM |  |  |  | 7 µM |  |  |  | 6.99 µM
Oc1ccccc1-n1nc2ccc3nonc3c2n1 | > 100 µM | > 100 µM | > 100 µM | > 100 µM | > 100 µM | > 100 µM |  |  |  |  | > 100 µM |  |  |  | > 100 µM |  |  |  | > 100 µM
CC(=O)O/N=C/c1cc2c(cc1Br)OCO2 | > 349 µM | > 349 µM | > 349 µM | > 349 µM |  | > 349 µM | > 349 µM |  |  |  |  |  |  |  |  |  |  |  | 
CCN1C(=O)CS/C1=N\NC(=O)CSc1nc2ccccc2c(=O)n1CC | > 100 µM | > 100 µM | > 100 µM | > 100 µM | > 100 µM | > 100 µM |  |  |  |  | > 100 µM |  |  |  | > 100 µM |  |  |  | > 100 µM
CCCCCCC(=O)OC[n+]1cccc(-c2c(COC(=O)NC(C)C)c(COC(=O)NC(C)C)c3n2CCC3)c1 | > 74.1 µM | 89.1 µM | > 100 µM | 72.9 µM | > 75 µM | > 100 µM |  |  |  |  | > 100 µM |  |  |  | > 100 µM |  |  |  | > 100 µM
O=[N+]([O-])c1ccc2[nH]c(O)c(N=NC(=S)Nc3ccccc3)c2c1 | 25.8 µM | 19.5 µM | 9.2 µM | 29 µM | 27.6 µM | > 100 µM |  |  |  |  | 24.6 µM |  |  |  | > 100 µM |  |  |  | 20.7 µM
CCOC(=O)Oc1ccc2c(c1)c(=O)c1c(NCCCN(CC)CC)ccc3nnn2c31 | 29.3 µM | 15.8 µM | 23 µM | 29 µM | 19 µM | 16.2 µM |  |  |  |  | 15.7 µM |  |  |  | 40.7 µM |  |  |  | 20.9 µM
CC#Cc1c(C#CC)c(OC)c2c(c1OC)C(=O)c1ccccc1C2=O | > 100 µM | 34.8 µM | > 100 µM | > 100 µM |  | > 100 µM | > 100 µM |  |  |  |  |  |  |  |  |  |  |  | 
COc1cccc(C(=O)N[C@@H]2[C@H](O)[C@@H](CO)O[C@H]2n2cnc3c(N)ncnc32)c1 | > 100 µM | > 100 µM | > 100 µM | > 100 µM | > 100 µM | > 100 µM |  |  |  |  | > 100 µM |  |  |  | > 100 µM |  |  |  | > 100 µM
C=CCC1C2CCC(O[Si](C(C)C)(C(C)C)C(C)C)(C(C(=O)OC)C2)C1O (stereo unspecified) | > 100 µM | > 100 µM | > 100 µM | > 100 µM | > 100 µM | > 100 µM |  |  |  |  | > 100 µM |  |  |  | > 100 µM |  |  |  | > 100 µM
CC1(C)N=C(Oc2ccccc2)n2nccc2N1 | > 100 µM | > 100 µM | > 100 µM | > 100 µM | > 100 µM | > 100 µM | > 100 µM |  |  |  |  |  |  |  |  |  |  |  | 
COc1ccccc1N1C(=O)CC(=O)N(C(=O)CCCCCCCCC(=O)N2C(=O)CC(=O)N(c3ccccc3OC)C2=S)C1=S | > 100 µM | > 100 µM | > 100 µM | > 100 µM | > 100 µM | > 100 µM |  |  |  |  | > 100 µM |  |  |  | > 100 µM |  |  |  | > 100 µM
CCN(CC)CCC(=O)O[C@H]1CC[C@H](CC(C)[C@H]2CC(=O)C(C)C=C(C)[C@H](OC(=O)CCN(CC)CC)C(OC)C(=O)[C@@H](C)CC(C)/C=C/C=C/C=C(C)C(OC)CC3CC[C@H](C)[C@](O)(O3)C(=O)C(=O)N3CCCCC3C(=O)O2)CC1OC (stereo partly specified) | > 10 µM and 3.53 µM | 2.62 µM and 4.48 µM | > 10 µM | 1.99 µM | 1.99 µM and 1.81 µM | 3.66 µM and 2 µM |  | 1.28 µM |  |  | 3.54 µM and 3.78 µM | 0.00704 µM |  |  | 2.28 µM |  | 1.37 µM | 1.22 µM | 2.57 µM and 2.4 µM
CCOP(=O)(OCC)C(=C1C=C(C(C)(C)C)C(=O)C(C(C)(C)C)=C1)P(=O)(OCC)OCC | > 10 µM | > 3.16 µM | > 10 µM | > 10 µM | > 10 µM | 3.55 µM |  |  |  |  | > 10 µM |  |  |  | > 10 µM |  |  |  | > 10 µM
Cc1cc(C)nc(NS(=O)(=O)c2ccc(NC(=O)c3cccc4c(N)c5ccccc5nc34)cc2)n1 | > 100 µM | > 100 µM | > 100 µM | > 100 µM | > 100 µM | > 100 µM | > 100 µM |  |  |  |  |  |  |  |  |  |  |  | 
